The record followed here is patent publication US12304910B2, “Janus kinase (JAK) family inhibitor, preparation of same, and applications thereof” (JIANGSU VCARE PHARMATECH CO., LTD., priority 2019, dated 2025).

For data set [1], the target named is JAK2 (Homo sapiens, UniProt O60674). Nature of the data set: Kinase activity test (γ33P-ATP isotopic method), JAK2. The format is biochemical. To be noted: 33P-ATP 10 μM, 2 h reaction. Here is the method: (§1) This experiment adopted a γ^33p-ATP isotopic test method to test the inhibitory effect of a compound on kinases JAK1, JAK2, JAK3 and TYK2, and obtained a half inhibitory concentration IC50 of the compound for inhibiting activity of the kinase.
(§2) 20 mM 4-hydroxyethylpiperazine ethanesulfonic acid buffer (Hepes, pH 7.5), 10 mM magnesium chloride (MgCl2), 1 mM ethylene glycol diethyl ether diamine tetraacetic acid (EGTA), 0.02% dodecyl polyethylene glycol ether (Brij35), 0.02 mg/ml bovine serum albumin (BSA), 0.1 mM sodium vanadate (Na3VO4), 2 mM dithiothreitol (DTT), and 1% dimethylsulfoxide (DMSO).
(§3) A compound is dissolved with 100% DMSO to a specific concentration, and then subjected to gradient dilution by an automatic sampling device to obtain the samples to be tested with different concentrations (DMSO solutions).
(§4) 3.1 diluting the reaction substrate with the basic reaction buffer;
(§5) 3.2 adding the kinase into the substrate solution, and gently mixing well;
(§6) 3.3 adding, by the automatic sampling system, the 100% DMSO diluted compounds with different concentrations into the kinase solution, and incubating for 20 min at room temperature; and
(§7) 3.4 adding ^33p-ATP (10 μM, 10 μCi/μl) at room temperature to initiate the kinase reaction for a duration of 2 h.
(§8) The unreacted ATP and the reaction-generated […] in the reaction were removed by an ion exchange filtering system, and then the amount of radioactivity of ^33p isotope in the substrate was detected.
(§9) According to the amount of radioactivity, the kinase activities in the systems added with the inhibitors of different concentrations were calculated, to obtain the inhibitors' effects of the compounds of different concentrations on the kinase activity; and fitting was performed with graphpad prism to obtain the inhibitory IC50 values of the compounds.

Data set [2] concerns the target T1, JAK3 (Homo sapiens, UniProt P52333).
T1 sequence (P52333 1-1124): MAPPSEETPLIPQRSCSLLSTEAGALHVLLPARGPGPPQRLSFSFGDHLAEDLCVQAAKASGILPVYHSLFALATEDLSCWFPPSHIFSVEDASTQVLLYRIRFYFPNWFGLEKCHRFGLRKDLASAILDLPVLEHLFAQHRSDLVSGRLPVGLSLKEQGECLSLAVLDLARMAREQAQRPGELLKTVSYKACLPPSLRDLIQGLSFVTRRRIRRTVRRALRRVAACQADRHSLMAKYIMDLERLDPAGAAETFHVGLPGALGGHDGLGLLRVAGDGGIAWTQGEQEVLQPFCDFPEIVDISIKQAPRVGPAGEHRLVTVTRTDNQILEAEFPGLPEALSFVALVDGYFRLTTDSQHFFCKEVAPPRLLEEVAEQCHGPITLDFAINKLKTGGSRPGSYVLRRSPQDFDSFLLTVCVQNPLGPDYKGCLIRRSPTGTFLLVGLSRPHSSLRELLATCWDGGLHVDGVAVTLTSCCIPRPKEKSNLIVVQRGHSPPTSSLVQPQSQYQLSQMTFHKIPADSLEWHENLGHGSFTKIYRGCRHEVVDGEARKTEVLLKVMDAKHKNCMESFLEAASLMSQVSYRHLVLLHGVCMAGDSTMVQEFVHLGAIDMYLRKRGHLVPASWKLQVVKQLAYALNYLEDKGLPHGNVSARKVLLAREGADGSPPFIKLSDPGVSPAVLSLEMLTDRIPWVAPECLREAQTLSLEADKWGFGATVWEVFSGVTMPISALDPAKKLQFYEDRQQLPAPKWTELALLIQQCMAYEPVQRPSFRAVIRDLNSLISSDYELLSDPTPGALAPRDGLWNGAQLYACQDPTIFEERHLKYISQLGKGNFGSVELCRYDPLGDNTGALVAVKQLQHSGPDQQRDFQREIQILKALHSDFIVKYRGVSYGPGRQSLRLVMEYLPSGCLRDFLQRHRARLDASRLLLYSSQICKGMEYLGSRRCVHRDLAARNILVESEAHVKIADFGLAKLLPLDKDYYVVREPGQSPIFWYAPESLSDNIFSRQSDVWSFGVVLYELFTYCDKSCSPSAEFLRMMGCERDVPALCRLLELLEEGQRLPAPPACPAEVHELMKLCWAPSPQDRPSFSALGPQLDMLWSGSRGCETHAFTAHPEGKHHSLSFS
Briefly: Kinase activity test (γ33P-ATP isotopic method), JAK3. To be noted: 33P-ATP 10 μM, 2 h reaction. The format is biochemical. Here is the method:
as §1, §2, §3, §4, §5, §6, §7, §8, §9

Data set [3] has as its system DSS induced mouse ulcerative colitis model. Briefly: Efficacy test in DSS induced mouse ulcerative colitis model. The format is in vivo. To be noted: for DAI score on day 8: once a day, mouse DSS model, DAI range 0-4. The text has this: Mice of 6-7 weeks old were randomly grouped, 6 mice per group. Purified water was provided ad libitum to the mice in a negative control group, and a 2% solution of dextran sulfate sodium (DSS) was provided ad libitum to the mice in other groups, for 7 consecutive days. During the modeling, medication was given according to the groups, once a day for 7 days (the treatment groups and the mouse numbers can be adjusted according to the specific situation). Within 8-10 days later, the DSS-containing water was replaced with purified water, provided ad libitum to the mice. The normal administration continued for 3 days.
From the first day of administration, the general conditions such as metal state, eating, drinking and activities of the mice were respectively observed every day, the mice were weighed every day, and the animal stools were collected, evaluated for their traits and subjected to the occult blood test. The disease activity index (DAI) of experimental animals within 1-10 days were comprehensively assessed.
Scoring was performed according to the above-mentioned standards. The disease activity index (DAI) of each mouse was obtained by summing the scores of weight loss, stool trait and occult blood condition, to evaluate the disease activity. DAI=(score of weight loss+score of stool trait+score of bloody stool)/3, ranging from 0-4.
The experimental data was processed statistically, and the data are all expressed as mean±SD or mean±SME. The SPSS13.0 software was used for statistical analysis, and the differences among the groups were compared with t test (equal variance) or t′ test (unequal variance).

Data set [4] in a line: Liver microsome test (metabolic stability). The format is in vitro ADME, human. Here is the method:
In an incubation system with a total volume of 250 μL, an incubation solution of hum an liver microsomes containing 0.5 mg/mL protein was formulated with a 50 mmol/L PBS buffer (pH=7.4). Before the start of incubation, 2.5 μL of a 100 μmol/L compound to be tested was mixed with 197.5 μL of the above incubation buffer, pre-incubated for 5 min in a 37° C. water bath, and then added with 50 μL of a reducing coenzyme II solution (5 mmol/L) that was likewise pre-incubated for 5 min to start a reaction (in the reaction system, the protein content of liver microsomes from various species was 0.5 g/L, and the final concentration of the compound to be tested was 1 μmol/L), incubated in a 37° C. water bath with shaking, and taken out at 0, 5, 15, 30, and 60 min respectively. 600 μL of a methanol solution of mixed positive and negative internal standards with internal standards Terfenadine (positive ion internal standard, 25 ng/mL) and Tolbutamide (negative ion internal standard, 50 ng/mL) was immediately added to terminate the reaction. The incubation solution after termination was shaken for 2 min and centrifuged (4° C., 16000 r/min) for 10 min, and the supernatant was taken for LC-MS/MS detection to quantitatively analyze the remaining amount of the parent drug. (DMSO=0.1%).
The concentration of the compound at 0 mi incubation was regarded as 100%, and the concentrations at other incubation time points were converted into the remaining percentages. The natural logarithm of the remaining percentage at each time point was linearly regressed against the incubation time, and the slope k was calculated. According to the formula T1/2=−0.693/k, the in vitro half-life was calculated. Clearance in liver microsomes (CLint (μL/min/mg protein)=Ln (2)*1000/T1/2 (min/Protein Conc (mg/ml)).
For orientation: Microsomes from liver hold many membrane-bound enzymes, among them those of drug oxidation.

Data set [5] deals with TYK2 (Homo sapiens, UniProt P29597). Nature of the data set: Kinase activity test (γ33P-ATP isotopic method), TYK2. The format is biochemical. To be noted: 33P-ATP 10 μM, 2 h reaction. Here is the method:
as §1, §2, §3, §4, §5, §6, §7, §8, §9

For data set [6], the target named is JAK1 (Homo sapiens, UniProt P23458). Briefly: Kinase activity test (γ33P-ATP isotopic method), JAK1. The format is biochemical. Here is the method:
as §1, §2, §3, §4, §5, §6, §7, §8, §9

Chain of JAK1 (P23458 whole entry): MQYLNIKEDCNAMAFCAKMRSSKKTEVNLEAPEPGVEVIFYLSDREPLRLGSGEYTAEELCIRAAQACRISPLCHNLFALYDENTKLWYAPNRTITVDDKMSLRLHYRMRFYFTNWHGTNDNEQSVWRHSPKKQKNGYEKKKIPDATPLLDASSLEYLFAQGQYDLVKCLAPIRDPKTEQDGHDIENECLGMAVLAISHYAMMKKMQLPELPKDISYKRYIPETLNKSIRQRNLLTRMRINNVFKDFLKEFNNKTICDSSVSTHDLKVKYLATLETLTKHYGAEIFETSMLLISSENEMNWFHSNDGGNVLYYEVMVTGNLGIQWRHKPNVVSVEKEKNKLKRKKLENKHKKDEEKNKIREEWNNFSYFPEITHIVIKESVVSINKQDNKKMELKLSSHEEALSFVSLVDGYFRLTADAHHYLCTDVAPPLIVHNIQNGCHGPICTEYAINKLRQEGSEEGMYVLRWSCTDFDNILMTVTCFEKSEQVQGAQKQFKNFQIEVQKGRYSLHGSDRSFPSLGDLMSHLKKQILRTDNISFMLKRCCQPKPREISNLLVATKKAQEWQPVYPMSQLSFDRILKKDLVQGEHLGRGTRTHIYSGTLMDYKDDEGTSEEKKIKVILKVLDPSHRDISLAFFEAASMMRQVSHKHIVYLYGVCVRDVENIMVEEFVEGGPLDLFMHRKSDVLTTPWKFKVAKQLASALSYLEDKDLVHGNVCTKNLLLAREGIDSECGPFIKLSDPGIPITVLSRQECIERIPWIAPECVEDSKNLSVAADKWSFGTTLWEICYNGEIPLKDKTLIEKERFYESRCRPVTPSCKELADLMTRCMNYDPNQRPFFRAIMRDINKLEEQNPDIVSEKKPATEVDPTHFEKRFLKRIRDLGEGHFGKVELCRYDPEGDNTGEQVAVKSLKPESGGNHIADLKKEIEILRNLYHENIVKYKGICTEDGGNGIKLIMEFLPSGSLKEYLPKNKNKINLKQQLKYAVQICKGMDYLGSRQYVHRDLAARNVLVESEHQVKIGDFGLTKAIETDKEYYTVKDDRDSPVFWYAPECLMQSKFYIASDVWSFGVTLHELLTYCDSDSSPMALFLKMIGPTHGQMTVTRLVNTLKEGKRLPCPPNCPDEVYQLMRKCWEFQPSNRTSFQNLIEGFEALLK
Chain of JAK2 (O60674 whole entry): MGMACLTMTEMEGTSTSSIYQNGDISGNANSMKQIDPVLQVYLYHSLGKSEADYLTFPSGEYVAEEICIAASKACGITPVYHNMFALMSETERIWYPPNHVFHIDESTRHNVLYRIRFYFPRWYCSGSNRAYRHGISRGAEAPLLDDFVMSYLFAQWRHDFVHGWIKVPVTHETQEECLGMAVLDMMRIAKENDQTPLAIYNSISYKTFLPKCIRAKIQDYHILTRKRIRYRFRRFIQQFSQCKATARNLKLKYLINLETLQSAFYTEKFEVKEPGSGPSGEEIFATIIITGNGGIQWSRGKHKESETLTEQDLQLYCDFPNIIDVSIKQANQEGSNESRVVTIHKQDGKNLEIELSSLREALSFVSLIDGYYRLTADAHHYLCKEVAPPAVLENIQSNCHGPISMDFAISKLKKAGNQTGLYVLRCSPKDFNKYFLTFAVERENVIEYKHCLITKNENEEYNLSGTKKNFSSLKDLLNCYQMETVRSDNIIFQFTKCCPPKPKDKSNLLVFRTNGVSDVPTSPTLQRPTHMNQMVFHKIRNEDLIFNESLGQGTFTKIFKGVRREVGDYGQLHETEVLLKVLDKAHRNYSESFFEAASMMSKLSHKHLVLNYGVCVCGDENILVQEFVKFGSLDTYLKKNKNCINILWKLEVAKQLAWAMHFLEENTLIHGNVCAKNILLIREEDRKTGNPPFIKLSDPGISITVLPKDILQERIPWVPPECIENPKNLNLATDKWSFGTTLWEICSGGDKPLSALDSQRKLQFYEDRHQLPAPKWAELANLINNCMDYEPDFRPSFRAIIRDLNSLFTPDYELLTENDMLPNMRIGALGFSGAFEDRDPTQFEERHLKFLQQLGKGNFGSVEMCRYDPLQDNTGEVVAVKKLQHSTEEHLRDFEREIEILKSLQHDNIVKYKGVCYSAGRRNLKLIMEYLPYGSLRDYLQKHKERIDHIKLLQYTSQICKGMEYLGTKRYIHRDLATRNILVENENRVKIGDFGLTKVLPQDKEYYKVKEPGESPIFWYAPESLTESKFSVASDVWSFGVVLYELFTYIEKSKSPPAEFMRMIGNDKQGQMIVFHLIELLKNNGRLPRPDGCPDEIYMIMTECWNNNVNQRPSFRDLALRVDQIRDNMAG
Chain of TYK2 (P29597 whole entry): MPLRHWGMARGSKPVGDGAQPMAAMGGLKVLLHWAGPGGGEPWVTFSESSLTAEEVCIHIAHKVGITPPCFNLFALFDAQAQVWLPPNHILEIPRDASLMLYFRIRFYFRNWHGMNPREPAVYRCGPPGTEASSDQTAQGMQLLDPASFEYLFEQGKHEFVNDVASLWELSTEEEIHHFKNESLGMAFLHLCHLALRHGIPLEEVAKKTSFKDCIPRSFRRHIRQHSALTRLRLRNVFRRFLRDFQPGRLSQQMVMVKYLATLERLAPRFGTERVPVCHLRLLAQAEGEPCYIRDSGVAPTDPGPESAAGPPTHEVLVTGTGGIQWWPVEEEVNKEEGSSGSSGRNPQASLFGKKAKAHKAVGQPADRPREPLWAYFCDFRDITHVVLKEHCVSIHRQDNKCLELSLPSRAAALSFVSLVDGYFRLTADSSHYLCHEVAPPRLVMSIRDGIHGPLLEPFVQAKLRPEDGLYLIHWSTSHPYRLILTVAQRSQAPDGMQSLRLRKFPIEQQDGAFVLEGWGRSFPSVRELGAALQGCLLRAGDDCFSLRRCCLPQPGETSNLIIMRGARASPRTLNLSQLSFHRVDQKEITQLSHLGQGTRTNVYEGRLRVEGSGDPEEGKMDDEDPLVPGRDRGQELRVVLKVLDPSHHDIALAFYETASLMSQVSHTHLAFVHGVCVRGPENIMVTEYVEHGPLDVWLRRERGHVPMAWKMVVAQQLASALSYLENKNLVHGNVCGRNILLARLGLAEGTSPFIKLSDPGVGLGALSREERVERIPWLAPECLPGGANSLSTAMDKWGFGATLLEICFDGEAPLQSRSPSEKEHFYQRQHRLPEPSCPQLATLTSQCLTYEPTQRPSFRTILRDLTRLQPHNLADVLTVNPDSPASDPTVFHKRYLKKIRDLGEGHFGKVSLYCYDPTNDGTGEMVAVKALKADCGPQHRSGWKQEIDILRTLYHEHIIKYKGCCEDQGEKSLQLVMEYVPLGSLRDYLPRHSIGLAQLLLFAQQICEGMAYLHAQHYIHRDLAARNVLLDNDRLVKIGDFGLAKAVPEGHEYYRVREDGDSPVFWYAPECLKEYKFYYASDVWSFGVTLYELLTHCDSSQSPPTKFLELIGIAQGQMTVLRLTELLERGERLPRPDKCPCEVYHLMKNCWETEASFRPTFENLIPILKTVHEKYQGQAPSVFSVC

In the case of `NC(=O)c1cnc2[nH]ccc2c1NN1CCC[C@H](C(=O)NCC(F)(F)F)C1` [Example 1, (S)-4-(3-(2,2,2-trifluoroethylcarbamoyl)piperidine-1-amino)-1H-7-azaindole-5-carboxamide], the IC50 was found to be 2.26 nM in data set [1]; 2.7 nM in data set [2]; 3.28 nM in data set [5]; 0.29 nM in data set [6] (33P-ATP 10 μM, 2 h reaction). Besides, the results for the “DAI score on day 8” value in data set [3] (5 mg/kg group) and in data set [3] (15 mg/kg group) were 2.8 and 2, respectively. For the same molecule, the “effect on DSS induced enteritis in mice (in words)” value in data set [3] (relatively low dose) is on record as “significant effect in inhibiting the DSS induced enteritis in mice”. The “Remaining % (60 min)” value in data set [4] (human liver microsomes 0.5 mg/mL protein, compound 1 μmol/L, 37° C., 60 min) was found to be 59.0%. Also, the “metabolic stability in liver microsomes (in words)” value in data set [4] (human liver microsomes, conclusion from Table 2) is “excellent metabolic activity in liver”. In data set [4] (pH 7.4, human liver microsomes 0.5 mg/mL protein, compound 1 μmol/L, 37° C.), the half-life at 1 μmol/L came to 1.36 h. Also, the microsomal CLint at 1 μmol/L in data set [4] (pH 7.4, human liver microsomes 0.5 mg/mL protein, compound 1 μmol/L, 37° C., read-out: Clint (μL/min/mg protein)) stood at 17 µL/min/mg. In addition, in data set [6] (conclusion from Table 1), the “activity in inhibiting the JAK1 kinase compared with Tofacitinib (in words)” value is given as “higher activity in inhibiting the JAK1 kinase than the positive drug control Tofacitinib”.

For orientation: IC50 means the concentration that gives 50% inhibition. Low readings indicate inhibition by little substance, high ones a need for much substance. A word on the half-life: it is the time in which the quantity being followed falls by half.
